Measurements from ChEMBL document CHEMBL1201862, “PubChem BioAssay data set” (2004).
The source made the active and inactive calls.

Tests used:
[1] = molecular target: T1, Histone-lysine N-methyltransferase NSD2 (Homo sapiens, UniProt O96028); format: biochemical
T1 sequence (O96028 whole entry): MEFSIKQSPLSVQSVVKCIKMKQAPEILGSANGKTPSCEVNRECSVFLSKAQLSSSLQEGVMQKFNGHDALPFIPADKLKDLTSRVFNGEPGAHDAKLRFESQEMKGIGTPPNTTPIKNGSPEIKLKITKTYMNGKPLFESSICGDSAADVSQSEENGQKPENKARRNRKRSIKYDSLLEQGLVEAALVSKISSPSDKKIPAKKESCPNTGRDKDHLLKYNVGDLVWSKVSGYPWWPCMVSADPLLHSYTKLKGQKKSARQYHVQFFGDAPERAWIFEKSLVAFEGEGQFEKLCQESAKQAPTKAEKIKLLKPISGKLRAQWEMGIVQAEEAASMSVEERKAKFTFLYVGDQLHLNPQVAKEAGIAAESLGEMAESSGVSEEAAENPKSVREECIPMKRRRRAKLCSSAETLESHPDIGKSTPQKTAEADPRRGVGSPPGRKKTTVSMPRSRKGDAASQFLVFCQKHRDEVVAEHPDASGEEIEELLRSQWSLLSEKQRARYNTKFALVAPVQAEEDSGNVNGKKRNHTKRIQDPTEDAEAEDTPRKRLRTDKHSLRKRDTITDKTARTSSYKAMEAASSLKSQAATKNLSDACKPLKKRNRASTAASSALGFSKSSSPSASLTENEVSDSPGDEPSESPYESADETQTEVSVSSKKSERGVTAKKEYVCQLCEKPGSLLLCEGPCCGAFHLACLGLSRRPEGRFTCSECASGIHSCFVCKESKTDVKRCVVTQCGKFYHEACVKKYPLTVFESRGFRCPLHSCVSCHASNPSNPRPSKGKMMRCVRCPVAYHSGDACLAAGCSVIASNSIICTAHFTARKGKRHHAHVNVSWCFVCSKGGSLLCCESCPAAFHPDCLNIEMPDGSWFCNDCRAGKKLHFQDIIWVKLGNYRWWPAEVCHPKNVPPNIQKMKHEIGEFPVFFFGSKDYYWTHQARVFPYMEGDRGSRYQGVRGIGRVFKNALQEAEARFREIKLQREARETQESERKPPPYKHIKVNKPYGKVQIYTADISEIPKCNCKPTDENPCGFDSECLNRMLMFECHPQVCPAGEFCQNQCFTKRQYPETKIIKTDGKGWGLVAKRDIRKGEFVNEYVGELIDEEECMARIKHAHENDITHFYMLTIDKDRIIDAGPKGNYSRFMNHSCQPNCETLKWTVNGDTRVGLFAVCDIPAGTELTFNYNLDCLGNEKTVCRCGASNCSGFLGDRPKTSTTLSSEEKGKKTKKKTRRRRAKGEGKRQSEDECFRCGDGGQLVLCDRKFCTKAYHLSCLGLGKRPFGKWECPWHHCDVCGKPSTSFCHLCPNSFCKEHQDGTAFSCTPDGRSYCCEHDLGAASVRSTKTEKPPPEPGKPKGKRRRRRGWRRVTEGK

[2] = molecular target: T2, Tyrosyl-DNA phosphodiesterase 2 (Homo sapiens, UniProt O95551); assay: human TDP2 enzyme inhibitors, dose response, biochemical, epi absorbance, IC50 (AID 743297)
T2 sequence (O95551 whole entry): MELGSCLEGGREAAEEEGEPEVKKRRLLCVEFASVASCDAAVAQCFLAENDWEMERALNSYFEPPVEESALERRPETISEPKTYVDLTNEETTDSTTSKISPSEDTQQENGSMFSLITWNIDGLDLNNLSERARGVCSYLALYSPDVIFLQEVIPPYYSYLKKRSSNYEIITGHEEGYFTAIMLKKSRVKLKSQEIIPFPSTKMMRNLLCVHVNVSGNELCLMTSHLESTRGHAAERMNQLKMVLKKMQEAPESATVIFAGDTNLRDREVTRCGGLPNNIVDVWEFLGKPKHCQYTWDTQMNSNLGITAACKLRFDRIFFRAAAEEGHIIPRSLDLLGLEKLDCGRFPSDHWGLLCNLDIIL

Nonstructural protein 1 = Nonstructural protein 1 (Influenza A virus, UniProt Q194T2); format: functional, Influenza A virus (A/California/07/2009(H1N1))
[3] = enhancers of respiration in Yfh1-depleted yeast, dose response, Friedreich's ataxia, plus single-dose screen (AID 1465); format: functional;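 also: yeast depleted of Yfh1p frataxin homolog grown on glycerol needing respiration; WST-1 tetrazolium dye reduction as measure of cellular dehydrogenase metabolic activity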
[4] = molecular target: T3, RNA-binding protein pos-1 (Caenorhabditis elegans, UniProt G5EF15); assay: inhibitors of POS-1/mex-3 RNA binding, dose response, biochemical, fluorescence polarization (AID 1964);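 also: purified POS-1 fused to maltose binding protein made in E. coli; potency of compounds blocking POS-1 binding to fluorescent RNA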
T3 sequence (G5EF15 whole entry): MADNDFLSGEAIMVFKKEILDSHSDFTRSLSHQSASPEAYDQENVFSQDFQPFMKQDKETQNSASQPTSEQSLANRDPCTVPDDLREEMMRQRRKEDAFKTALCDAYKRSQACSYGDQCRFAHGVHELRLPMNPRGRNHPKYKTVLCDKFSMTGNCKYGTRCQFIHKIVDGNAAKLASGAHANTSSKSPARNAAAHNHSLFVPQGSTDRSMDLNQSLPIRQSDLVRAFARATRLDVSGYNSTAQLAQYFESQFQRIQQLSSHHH

[5] = molecular target: Bifunctional protein GlmU (Mycobacterium tuberculosis, UniProt P9WMN3); assay: Inhibitors of Mycobacterial Glucosamine-1-phosphate acetyl transferase (GlmU). Secondary screen.; design: species or system Mycobacterium tuberculosis H37Rv
[6] = molecular target: T4, Endoribonuclease toxin MazF (Escherichia coli K-12, UniProt P0AE70); assay: fluorescent RNA oligo signal without MazF, dose response, counter-screen for MazEF activator project, biochemical, fluorescence, single-stranded RNase substrate (AID 588502); format: functional
T4 sequence (P0AE70 whole entry): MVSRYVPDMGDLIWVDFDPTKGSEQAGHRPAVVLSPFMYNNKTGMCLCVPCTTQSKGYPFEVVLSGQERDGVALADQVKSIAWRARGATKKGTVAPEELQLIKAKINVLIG

[7] = molecular target: Induced myeloid leukemia cell differentiation protein Mcl-1 (Homo sapiens, UniProt Q07820); format: functional
[8] = molecular target: T4, Endoribonuclease toxin MazF; assay: MazF toxin RNase activators, dose response, biochemical, fluorescence, single-stranded RNA substrate, uHTS hits (AID 588481); format: functional

Sequence of Nonstructural protein 1 (Q194T2 whole entry): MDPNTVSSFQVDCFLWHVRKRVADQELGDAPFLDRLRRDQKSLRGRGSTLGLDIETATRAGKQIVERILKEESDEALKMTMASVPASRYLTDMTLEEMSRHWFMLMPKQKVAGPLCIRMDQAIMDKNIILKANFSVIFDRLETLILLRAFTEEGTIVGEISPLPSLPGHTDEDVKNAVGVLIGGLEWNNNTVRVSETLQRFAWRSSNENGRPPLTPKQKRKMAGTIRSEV
Sequence of Induced myeloid leukemia cell differentiation protein Mcl-1 (Q07820 whole entry): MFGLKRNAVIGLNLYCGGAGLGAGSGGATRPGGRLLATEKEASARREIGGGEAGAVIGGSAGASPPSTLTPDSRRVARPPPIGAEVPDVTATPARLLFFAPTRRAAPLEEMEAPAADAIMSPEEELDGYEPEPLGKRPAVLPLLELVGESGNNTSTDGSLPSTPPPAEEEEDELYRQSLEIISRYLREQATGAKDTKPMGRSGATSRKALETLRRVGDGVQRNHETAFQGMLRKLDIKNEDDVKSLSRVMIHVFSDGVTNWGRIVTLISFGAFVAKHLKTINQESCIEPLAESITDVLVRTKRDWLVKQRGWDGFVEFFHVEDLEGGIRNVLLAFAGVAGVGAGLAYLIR
Sequence of Bifunctional protein GlmU (P9WMN3 whole entry): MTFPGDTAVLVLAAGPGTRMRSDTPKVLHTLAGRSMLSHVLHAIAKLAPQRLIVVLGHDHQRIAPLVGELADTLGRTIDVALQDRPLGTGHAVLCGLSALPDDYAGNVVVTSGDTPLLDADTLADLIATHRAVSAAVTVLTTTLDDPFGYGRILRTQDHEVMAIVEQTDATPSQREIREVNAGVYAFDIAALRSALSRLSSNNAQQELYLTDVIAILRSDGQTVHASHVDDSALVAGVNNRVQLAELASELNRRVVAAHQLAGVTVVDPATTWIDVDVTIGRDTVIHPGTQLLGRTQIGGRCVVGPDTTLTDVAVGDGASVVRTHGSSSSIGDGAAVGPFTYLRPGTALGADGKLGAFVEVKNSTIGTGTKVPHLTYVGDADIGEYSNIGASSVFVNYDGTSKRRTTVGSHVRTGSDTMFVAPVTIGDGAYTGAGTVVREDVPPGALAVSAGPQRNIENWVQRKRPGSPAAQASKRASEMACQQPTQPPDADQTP

| Compound | AC50 [1] | IC50 [2] | IC50 (Nonstructural protein 1) | EC50 [3] | EC50 [4] | IC50 [5] | EC50 [6] | IC50 [7] | EC50 [8] |
| --- | --- | --- | --- | --- | --- | --- | --- | --- | --- |
| COC(=O)c1ccc(-c2ccc(C(c3c(C)[nH][nH]c3=O)c3c(C)[nH][nH]c3=O)o2)cc1 | 17.8 µM (active) | 74.3 µM (inactive) |  |  |  |  |  |  |  |
| Oc1ccc(/C=N/NC(=S)Nc2cccnc2)c(O)c1O |  |  | 3.58 µM (active) | > 100 µM (active) | 71.4 µM (active) | 83 µM (active) | > 99 µM (inactive) | 19.5 µM (active) | > 99 µM (inactive) |
